Laboratory results from ChEMBL document CHEMBL1201862, “PubChem BioAssay data set” (2004).
Calls of active or inactive are those of the source.

Tests used:
Cytochrome P450 1A2 = molecular target: T1, Cytochrome P450 1A2 (Homo sapiens, UniProt P05177);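 also: PubChem cytochrome P450 panel assay, CYP1A2 panel member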
T1 sequence (P05177 whole entry): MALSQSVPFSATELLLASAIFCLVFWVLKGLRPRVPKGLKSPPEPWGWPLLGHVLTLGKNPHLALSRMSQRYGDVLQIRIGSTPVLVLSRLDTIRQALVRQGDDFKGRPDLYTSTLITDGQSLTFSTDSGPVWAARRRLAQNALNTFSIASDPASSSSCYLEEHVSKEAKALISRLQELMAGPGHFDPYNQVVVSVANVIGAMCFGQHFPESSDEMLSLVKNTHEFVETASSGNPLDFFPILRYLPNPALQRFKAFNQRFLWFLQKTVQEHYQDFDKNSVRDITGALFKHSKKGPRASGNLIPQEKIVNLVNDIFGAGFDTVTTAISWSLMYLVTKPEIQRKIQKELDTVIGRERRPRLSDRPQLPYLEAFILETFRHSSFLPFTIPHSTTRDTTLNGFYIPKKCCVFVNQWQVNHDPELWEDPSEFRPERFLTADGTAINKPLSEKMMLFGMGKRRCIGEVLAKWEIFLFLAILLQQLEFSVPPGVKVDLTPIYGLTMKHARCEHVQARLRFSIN

[1] = molecular target: T2, Heat shock factor protein 1 (Mus musculus, UniProt P38532); test: enhancement of HSF1-driven luciferase signal – cell-based, NIH3T3, luminescence, dose retest, confirmation (AID 435004); assay type: functional;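 also: stress induced by proteasome inhibitor MG132 added 30 min after compound; luciferase reporter driven by HSF1 response element in NIH3T3 cells; actives raise luminescence as potentiators of the MG132 stress response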
T2 sequence (P38532 whole entry): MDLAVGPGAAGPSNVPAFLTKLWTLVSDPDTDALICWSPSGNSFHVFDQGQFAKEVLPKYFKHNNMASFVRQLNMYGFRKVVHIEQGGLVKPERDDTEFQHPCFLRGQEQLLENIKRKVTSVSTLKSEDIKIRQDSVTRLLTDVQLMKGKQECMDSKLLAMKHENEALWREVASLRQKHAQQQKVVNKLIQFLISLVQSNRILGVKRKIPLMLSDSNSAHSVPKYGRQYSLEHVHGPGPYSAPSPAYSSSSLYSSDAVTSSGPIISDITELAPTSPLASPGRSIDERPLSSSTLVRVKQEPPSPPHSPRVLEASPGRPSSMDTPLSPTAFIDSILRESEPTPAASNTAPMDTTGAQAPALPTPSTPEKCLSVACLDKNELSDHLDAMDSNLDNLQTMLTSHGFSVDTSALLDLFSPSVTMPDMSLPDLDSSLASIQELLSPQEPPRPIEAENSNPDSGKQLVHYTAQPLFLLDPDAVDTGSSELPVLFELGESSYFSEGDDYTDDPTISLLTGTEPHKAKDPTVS

Cytochrome P450 3A4 = Cytochrome P450 3A4 (Homo sapiens, UniProt P08684);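 also: CYP3A4 tested as one member of a cytochrome P450 panel screen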
Cytochrome P450 2C9 = Cytochrome P450 2C9 (Homo sapiens, UniProt P11712)
Cytochrome P450 2C19 = Cytochrome P450 2C19 (Homo sapiens, UniProt P33261); test: Cytochrome panel assay with activity outcomes. Panel member name: p450-cyp2c19 Compounds with AC50 equal or less than 10 uM are considered active; assay type: functional
H4 = test: Luminescence Cell-Based Dose Response HTS to Identify Activators of 5'UTR Stem-Loop Driven Prion Protein mRNA Translation in H4 Neuroglioblastoma Cells. [Related pubchem assays: 1829 (Project Summary), 1814 (Primary HTS)]; assay type: functional; details: Homo sapiens
[2] = molecular target: T3, Zinc finger protein mex-5 (Caenorhabditis elegans, UniProt Q9XUB2); test: potency of MEX-5 RNA-binding blockers – biochemical, C. elegans, fluorescence polarization, dose response (AID 1960)
T3 sequence (Q9XUB2 whole entry): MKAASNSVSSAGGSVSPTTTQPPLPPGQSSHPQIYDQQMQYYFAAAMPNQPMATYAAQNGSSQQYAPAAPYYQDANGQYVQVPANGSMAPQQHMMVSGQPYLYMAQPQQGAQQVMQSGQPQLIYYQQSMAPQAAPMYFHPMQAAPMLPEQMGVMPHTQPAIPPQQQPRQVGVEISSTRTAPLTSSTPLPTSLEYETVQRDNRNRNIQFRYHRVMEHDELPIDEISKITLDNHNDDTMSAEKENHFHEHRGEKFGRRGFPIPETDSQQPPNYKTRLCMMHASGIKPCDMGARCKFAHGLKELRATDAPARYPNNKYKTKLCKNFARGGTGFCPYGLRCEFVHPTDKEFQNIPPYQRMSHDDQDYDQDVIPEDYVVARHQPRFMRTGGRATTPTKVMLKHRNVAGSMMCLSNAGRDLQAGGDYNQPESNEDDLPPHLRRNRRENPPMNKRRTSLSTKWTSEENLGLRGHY

[3] = molecular target: T4, RNA-binding protein pos-1 (Caenorhabditis elegans, UniProt G5EF15); test: disruptors of C. elegans POS-1 RNA interaction – biochemical, fluorescence polarization, dose response (AID 1964);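 also: purified POS-1 fused to maltose binding protein made in E. coli; potency of compounds blocking POS-1 binding to fluorescent RNA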
T4 sequence (G5EF15 whole entry): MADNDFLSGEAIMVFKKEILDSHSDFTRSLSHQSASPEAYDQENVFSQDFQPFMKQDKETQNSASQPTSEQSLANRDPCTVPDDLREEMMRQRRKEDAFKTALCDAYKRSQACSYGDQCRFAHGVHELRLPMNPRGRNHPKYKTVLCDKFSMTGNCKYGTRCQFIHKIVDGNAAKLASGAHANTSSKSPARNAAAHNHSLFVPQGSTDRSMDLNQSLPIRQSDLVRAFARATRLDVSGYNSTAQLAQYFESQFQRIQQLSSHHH

Chain of Cytochrome P450 3A4 (P08684 whole entry): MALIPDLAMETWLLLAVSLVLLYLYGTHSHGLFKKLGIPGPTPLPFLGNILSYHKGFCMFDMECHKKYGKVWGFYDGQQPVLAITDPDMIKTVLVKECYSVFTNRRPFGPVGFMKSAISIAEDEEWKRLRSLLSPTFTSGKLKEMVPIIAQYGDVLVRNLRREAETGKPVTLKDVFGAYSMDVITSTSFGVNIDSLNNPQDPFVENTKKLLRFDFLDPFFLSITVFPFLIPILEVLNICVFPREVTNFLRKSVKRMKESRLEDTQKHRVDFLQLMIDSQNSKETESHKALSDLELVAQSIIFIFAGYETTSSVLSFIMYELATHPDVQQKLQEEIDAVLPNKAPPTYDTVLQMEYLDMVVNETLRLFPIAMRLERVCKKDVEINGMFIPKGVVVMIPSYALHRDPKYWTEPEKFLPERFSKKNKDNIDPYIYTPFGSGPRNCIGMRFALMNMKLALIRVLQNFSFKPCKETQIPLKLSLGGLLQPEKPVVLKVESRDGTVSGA
Chain of Cytochrome P450 2C9 (P11712 whole entry): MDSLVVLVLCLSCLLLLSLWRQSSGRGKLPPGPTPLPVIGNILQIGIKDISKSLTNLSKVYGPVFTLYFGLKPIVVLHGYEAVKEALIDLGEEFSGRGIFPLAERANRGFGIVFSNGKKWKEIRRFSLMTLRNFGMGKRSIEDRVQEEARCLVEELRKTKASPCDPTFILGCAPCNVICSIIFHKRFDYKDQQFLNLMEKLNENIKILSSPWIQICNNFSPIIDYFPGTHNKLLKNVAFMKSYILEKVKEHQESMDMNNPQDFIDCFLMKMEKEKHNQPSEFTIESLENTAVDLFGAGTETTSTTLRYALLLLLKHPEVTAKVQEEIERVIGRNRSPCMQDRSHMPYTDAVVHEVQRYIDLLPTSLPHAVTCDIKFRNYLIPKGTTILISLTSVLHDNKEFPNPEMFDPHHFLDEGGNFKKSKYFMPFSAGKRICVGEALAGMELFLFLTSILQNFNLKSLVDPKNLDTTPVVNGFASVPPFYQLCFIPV
Chain of Cytochrome P450 2C19 (P33261 whole entry): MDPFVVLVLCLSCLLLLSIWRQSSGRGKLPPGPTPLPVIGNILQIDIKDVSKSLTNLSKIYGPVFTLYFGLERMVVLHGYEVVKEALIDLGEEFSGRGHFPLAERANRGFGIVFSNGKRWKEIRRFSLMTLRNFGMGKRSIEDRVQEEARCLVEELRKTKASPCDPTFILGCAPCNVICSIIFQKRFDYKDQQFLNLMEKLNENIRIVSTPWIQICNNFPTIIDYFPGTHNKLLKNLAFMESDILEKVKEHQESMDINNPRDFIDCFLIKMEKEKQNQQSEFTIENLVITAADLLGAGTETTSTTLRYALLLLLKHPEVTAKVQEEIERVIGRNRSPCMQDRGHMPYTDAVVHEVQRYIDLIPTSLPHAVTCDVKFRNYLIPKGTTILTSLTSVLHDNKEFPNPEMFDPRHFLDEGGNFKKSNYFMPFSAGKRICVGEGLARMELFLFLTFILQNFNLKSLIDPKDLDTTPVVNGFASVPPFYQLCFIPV

COc1ccccc1N1CCN(c2nc(-c3ccccc3)cc(C(F)(F)F)n2)CC1
AC50 (Cytochrome P450 1A2): 0.631 µM (inconclusive)

COc1cccc(N2CCN(S(=O)(=O)c3ccc(-c4coc(C)n4)cc3)CC2)c1
EC50 [1]: > 260 µM (inactive)

CCOc1ccc(-c2nn(-c3ccccc3)cc2/C=C(\C#N)S(=O)(=O)c2ccccc2)cc1C
AC50 (Cytochrome P450 3A4): 11.2 µM (inconclusive)
AC50 (Cytochrome P450 2C9): 10 µM (inconclusive)

O=C(Nc1cccc(C(F)(F)F)c1)c1n[nH]c(Cn2cncn2)n1
AC50 (Cytochrome P450 3A4): 25.1 µM (inconclusive)
AC50 (Cytochrome P450 2C19; read-out: AC50): 28.2 µM (inconclusive)

Cc1ccc(C)c(NC2CCCCC2NS(=O)(=O)c2ccccc2)c1 (stereo unspecified)
EC50 [1]: > 260 µM (inactive)

Cc1cccc(C2C3=C(CCCC3=O)N=C3c4ccccc4C(=O)C32)c1 (stereo unspecified)
EC50 [1]: 26.1 µM (active)

O=C(NC1CC1)c1cccc(Nc2ccc(-c3ccc4c(c3)OCCO4)nn2)c1
EC50 (H4): 52.2 µM (active)

Cn1c(CN2CCN(c3ccc(Cl)cc3)CC2)nc2ccccc21
EC50 [1]: > 260 µM (inactive)

Nc1ncnc2c1CCC2
EC50 [1]: > 260 µM (inactive)

CCCNC(=O)NC(=O)CSc1cccc(C(F)(F)F)c1
EC50 [1]: > 260 µM (inactive)

NC(=NO)C1COc2ccccc2O1 (stereo unspecified)
AC50 (Cytochrome P450 2C19; read-out: AC50): 11.2 µM (inconclusive)
AC50 (Cytochrome P450 1A2): 14.1 µM (inconclusive)
AC50 (Cytochrome P450 2C9): 2.51 µM (inconclusive)

CN(C)C(=O)c1ccc(-c2cc(NCc3cccnc3)ncn2)cc1
AC50 (Cytochrome P450 1A2): 20 µM (inconclusive)

CN(C(=S)NC(=O)c1ccccc1Br)C1CCCCC1
AC50 (Cytochrome P450 3A4): 2.51 µM (inconclusive)

C[C@@H]1c2ccccc2Cn2cc3c(c21)C(=O)c1cccc(O[P@@](=O)(O)OCc2ccccc2)c1C3=O
AC50 (Cytochrome P450 1A2): 3.16 µM (inconclusive)

CCN(CC)C(=O)CNc1ccc(C(F)(F)F)cc1[N+](=O)[O-]
EC50 [2]: > 300 µM (not active)
EC50 [3]: 40 µM (inconclusive)

Cc1ccc(/C=C2\C(=O)NC(=S)N(c3ccc(F)cc3)C2=O)o1
EC50 [2]: 43.9 µM (active)
EC50 [3]: > 300 µM (not active)

COc1ccc(-n2cnnc2SCC(=O)N(C)C2CCS(=O)(=O)C2)cc1 (stereo unspecified)
EC50 [1]: > 260 µM (inactive)

Clc1ccccc1-c1cc(NCCN2CCOCC2)ncn1
AC50 (Cytochrome P450 2C19; read-out: AC50): 25.1 µM (inconclusive)
AC50 (Cytochrome P450 1A2): 31.6 µM (inconclusive)

ClCC1CS/C(=N\C23CC4CC(CC(C4)C2)C3)O1 (stereo unspecified)
EC50 [1]: > 260 µM (inactive)

Clc1cncc(N2CCNCC2)n1 [MK-212]
AC50 (Cytochrome P450 3A4): 15.8 µM (inconclusive)
AC50 (Cytochrome P450 2C19; read-out: AC50): 6.31 µM (inconclusive)

CC1(OC(=O)c2cnc3ccccc3n2)C(=O)C=C2C=C(c3ccc(C#N)cc3)OC=C2C1=O (stereo unspecified)
EC50 [2]: 44.9 µM (active)
EC50 [3]: 39.8 µM (active)

Cc1ccc(S(=O)(=O)C(C#N)c2nc3ccccc3nc2N2CC(C)OC(C)C2)cc1C (stereo unspecified)
EC50 [2]: 26.1 µM (inconclusive)
EC50 [3]: 4.67 µM (inconclusive)

O=c1c(-c2ccc(F)cc2)nc2cnc(Oc3cccc(Cl)c3)nc2n1C[C@H]1CCCO1
AC50 (Cytochrome P450 3A4): 12.6 µM (inconclusive)
AC50 (Cytochrome P450 2C19; read-out: AC50): 39.8 µM (inconclusive)

CC(C)(O)C#Cc1ccc(C(=O)NCc2cccs2)s1
AC50 (Cytochrome P450 3A4): 28.2 µM (inconclusive)
AC50 (Cytochrome P450 2C19; read-out: AC50): 17.8 µM (inconclusive)

CC(C)OC(=O)c1ccc(COc2ccc3ccc(=O)oc3c2)o1
EC50 [1]: 66.6 µM (active)

CC(C)(S)[C@H](N)C(=O)O
AC50 (Cytochrome P450 1A2): 6.31 µM (inconclusive)

COc1cccc(N/C(SCc2cccc([N+](=O)[O-])c2)=C(/C#N)C(=O)NCc2cccs2)c1
EC50 [1]: > 260 µM (inactive)

CCc1nc(O)c(C#N)c2c1CSC(C)(C)C2
EC50 [1]: > 260 µM (inactive)

O=c1nc(SCc2cccc([N+](=O)[O-])c2)[nH]c2nc[nH]c12
AC50 (Cytochrome P450 3A4): 3.16 µM (inconclusive)
AC50 (Cytochrome P450 2C19): inconclusive

CCN(CC)c1ccc(/C=c2/sc3nnc(-c4ccccc4C)n3c2=O)cc1
EC50 [2]: > 300 µM (inconclusive)
EC50 [3]: > 300 µM (not active)

O=C(O[C@@H]1Cc2c(O)cc(O)cc2O[C@@H]1c1cc(O)c(O)c(O)c1)c1cc(O)c(O)c(O)c1 [EPIGALOCATECHIN GALLATE]
EC50 [2]: 0.727 µM (active)
EC50 [3]: 5.89 µM (inconclusive)

COc1cc(-c2ccc(/N=N\c3ccc4c(S(=O)(=O)O)cc(S(=O)(=O)O)c(N)c4c3O)c(OC)c2)ccc1/N=N\c1ccc2c(S(=O)(=O)O)cc(S(=O)(=O)O)c(N)c2c1O
AC50 (Cytochrome P450 3A4): 10 µM (inconclusive)
AC50 (Cytochrome P450 2C9): 10 µM (inconclusive)

COc1ccc(-n2c(=O)c3c4c(sc3n(CC(N)=O)c2=O)CCCCC4)cc1
EC50 [1]: > 260 µM (inactive)

COCC1C2CC[C@H]3C(OCc4ccc(OC)cc4)OC[C@]4(C)[C@H]3C2=C(CN4C(=O)OC(C)(C)C)[C@H](C)C1COC (stereo partly specified)
AC50 (Cytochrome P450 1A2): 15.8 µM (inconclusive)
AC50 (Cytochrome P450 2C9): 15.8 µM (inconclusive)

CCN1C(=O)/C(=C\c2c[nH]c3ccccc23)S/C1=N\c1ccc(C)cc1
AC50 (Cytochrome P450 1A2): 6.31 µM (inconclusive)

CC(C)(C)OC(=O)N1CSC[C@H]1C(=O)NC[C@H](CC(=O)O)c1ccc(Cl)cc1
EC50 [1]: > 260 µM (inactive)

Cc1cc(NC(=O)c2c([N+](=O)[O-])cnn2C)no1
AC50 (Cytochrome P450 3A4): 25.1 µM (inconclusive)
AC50 (Cytochrome P450 2C9): 39.8 µM (inconclusive)

Cc1ccc(-c2nc3ccccc3[nH]2)cc1NC(=O)c1ccc2c(c1)OCO2
EC50 [1]: 70.2 µM (active)

COc1cc(OC)c(C(=O)CCCCN2CCC3(CC2)NC(=O)NC3=O)cc1NS(=O)(=O)c1ccc(C(F)(F)F)cc1 [RS-102,221]
AC50 (Cytochrome P450 3A4): 7.94 µM (inconclusive)

CC1(OC(=O)c2ccco2)C(=O)C=C2C=C(c3ccsc3)OC=C2C1=O (stereo unspecified)
EC50 [2]: 23.1 µM (active)
EC50 [3]: > 300 µM (not active)

COc1ccccc1C(=O)CSc1nnc(-c2ccco2)o1
EC50 [1]: 65 µM (active)

CCCNS(=O)(=O)c1ccc(CCC(=O)NCc2ccc3c(c2)OCO3)cc1
EC50 [2]: > 300 µM (not active)
EC50 [3]: > 300 µM (not active)

O=C1NC(=O)N(CCc2ccccc2)C(=O)/C1=C/NNC(=O)c1ccccc1
EC50 [2]: > 150 µM (not active)
EC50 [3]: 40.2 µM (active)

COc1cccc(-c2nc(C[S+]([O-])CC(=O)N3CCC4(CC3)OCCO4)c(C)o2)c1 (stereo unspecified)
AC50 (Cytochrome P450 3A4): 12.6 µM (inconclusive)
AC50 (Cytochrome P450 2C19; read-out: AC50): 14.1 µM (inconclusive)
AC50 (Cytochrome P450 1A2): 25.1 µM (inconclusive)
AC50 (Cytochrome P450 2C9): 31.6 µM (inconclusive)

CCC(C)(C)NC(=O)c1ccc2c(c1)N(CC(=O)OC)C(=O)C(C)(C)O2
AC50 (Cytochrome P450 2C19; read-out: AC50): 20 µM (inconclusive)
AC50 (Cytochrome P450 1A2): 0.158 µM (inconclusive)

C/C=C(/C)C(=O)Nc1cccc(C2=NOC3(C2)C[C@@H](C(N)=O)N(C(=O)CC)C3)c1 (stereo partly specified)
EC50 [1]: > 260 µM (inactive)

O=C(NC1CCCCC1)C(c1cccs1)N(C(=O)C(F)(F)F)c1ccccc1 (stereo unspecified)
AC50 (Cytochrome P450 1A2): 2.51 µM (inconclusive)

O=c1[nH]c(=O)n([C@H]2C[C@H](O)[C@H](CO)O2)cc1/C=C\Br
AC50 (Cytochrome P450 3A4): 20 µM (inconclusive)
AC50 (Cytochrome P450 1A2): 31.6 µM (inconclusive)

COC(=O)CCCC1=CC2=CC(=O)C(C)(OC(=O)c3ccc(Cl)nc3)C(=O)C2=CO1 (stereo unspecified)
EC50 [2]: 18.8 µM (active)
EC50 [3]: > 150 µM (not active)
